Structures can show the parent of a compound that is named as a salt.
Molecular target: T1, AR (Homo sapiens, UniProt P10275)
T1 construct: endogenous in cells; host or cells: VCaP cells
T1 sequence (P10275 1-920): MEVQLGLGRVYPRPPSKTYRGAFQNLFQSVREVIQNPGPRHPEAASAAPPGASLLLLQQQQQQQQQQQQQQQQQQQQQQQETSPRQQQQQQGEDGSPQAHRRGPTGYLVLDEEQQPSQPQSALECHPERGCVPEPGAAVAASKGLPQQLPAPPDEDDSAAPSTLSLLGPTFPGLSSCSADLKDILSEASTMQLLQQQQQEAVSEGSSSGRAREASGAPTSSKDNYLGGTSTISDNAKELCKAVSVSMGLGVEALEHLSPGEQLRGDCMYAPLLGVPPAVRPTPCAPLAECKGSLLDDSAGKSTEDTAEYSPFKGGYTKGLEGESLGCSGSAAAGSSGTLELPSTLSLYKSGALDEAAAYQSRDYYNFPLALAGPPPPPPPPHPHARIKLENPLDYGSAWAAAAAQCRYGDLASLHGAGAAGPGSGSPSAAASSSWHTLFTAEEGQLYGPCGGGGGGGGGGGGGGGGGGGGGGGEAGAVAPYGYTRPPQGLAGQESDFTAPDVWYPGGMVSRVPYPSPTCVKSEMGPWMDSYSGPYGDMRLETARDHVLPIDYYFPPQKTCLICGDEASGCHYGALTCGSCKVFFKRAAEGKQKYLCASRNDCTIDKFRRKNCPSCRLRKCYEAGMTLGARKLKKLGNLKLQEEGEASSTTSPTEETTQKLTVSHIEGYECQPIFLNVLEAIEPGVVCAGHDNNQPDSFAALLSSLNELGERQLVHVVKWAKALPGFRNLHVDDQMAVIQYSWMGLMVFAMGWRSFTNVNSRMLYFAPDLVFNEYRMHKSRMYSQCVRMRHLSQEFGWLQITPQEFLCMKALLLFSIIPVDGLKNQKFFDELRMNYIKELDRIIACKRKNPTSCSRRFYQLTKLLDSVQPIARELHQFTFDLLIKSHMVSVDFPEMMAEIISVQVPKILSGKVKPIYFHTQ
Assay: VCAP AR Degradation Assay
Assay type: cell-based
Details: for Y (AR degradation efficiency, % of DMSO control): class symbols *; for DC50: class symbols A-C, read-out: DC50
Outline: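 Compounds were plated as 10-point 1:3 series reaching 5 μM final, then VCaP cells were seeded onto them and incubated 24 h at 37 °C. Cells were lysed cold, and total AR was measured by sandwich ELISA relative to 0.1% DMSO wells.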

CC1(C)C(=O)N(c2cnc(C#N)c(C(F)(F)F)c2)C(=S)N1c1ccc(OCCN2CCN(CC(=O)Nc3cc(Cl)cc(NC4CCC(=O)NC4=O)c3)CC2)c(C2CC2)c1 (stereo not drawn) [Example 84, N-(3-chloro-5-(2,6-dioxopiperidin-3-ylamino)phenyl)-2-(4-(2-(4-(3-(6-cyano-5-(trifluoromethyl)pyridin-3-yl)-5,5-dimethyl-4-oxo-2-thioxoimidazolidin-1-yl)-2-cyclopropylphenoxy)ethyl)piperazin-1-yl)acetamide]
Y (AR degradation efficiency, % of DMSO control): * (0<Y<=25%)
DC50: < 100 nM

CCc1cc(N2C(=S)N(c3cnc(C#N)c(C(F)(F)F)c3)C(=O)C2(C)C)ccc1OCCN1C[C@@H]2C[C@H]1CN2CC(=O)Nc1cc(Cl)cc(NC2CCC(=O)NC2=O)c1 (stereo partly drawn) [Example 115, N-(3-chloro-5-(2,6-dioxopiperidin-3-ylamino)phenyl)-2-((1S,4S)-5-(2-(4-(3-(6-cyano-5-(trifluoromethyl)pyridin-3-yl)-5,5-dimethyl-4-oxo-2-thioxoimidazolidin-1-yl)-2-ethylphenoxy)ethyl)-2,5-diazabicyclo[2.2.1]heptan-2-yl)acetamide]
Y (AR degradation efficiency, % of DMSO control): ** (25%<Y<=35%)
DC50: 100 to 500 nM

C[C@@H]1CN(CCOc2ccc(N3C(=S)N(c4cnc(C#N)c(C(F)(F)F)c4)C(=O)C34CCC4)cc2C2CC2)C[C@H](C)N1CC(=O)Nc1cc(NC2CCC(=O)NC2=O)ccc1F (stereo partly drawn) [Example 198, 2-((2S,6R)-4-(2-(4-(7-(6-cyano-5-(trifluoromethyl)pyridin-3-yl)-8-oxo-6-thioxo-5,7-diazaspiro[3.4]octan-5-yl)-2-cyclopropylphenoxy)ethyl)-2,6-dimethylpiperazin-1-yl)-N-(5-(2,6-dioxopiperidin-3-ylamino)-2-fluorophenyl)acetamide]
Y (AR degradation efficiency, % of DMSO control): * (0<Y<=25%)
DC50: < 100 nM

CCc1cc(N2C(=S)N(c3ccc(C#N)c(C(F)(F)F)c3)C(=O)C2(C)C)ccc1OCCN1CCN(CC(=O)Nc2cccc(NC3CCC(=O)NC3=O)c2)CC1 (stereo not drawn) [Example 10, hydrochloride]
Y (AR degradation efficiency, % of DMSO control): * (0<Y<=25%)
DC50: < 100 nM

C[C@@H]1CN(CCOc2ccc(N3C(=S)N(c4cnc(C#N)c(C(F)(F)F)c4)C(=O)C3(C)C)cc2CCF)CCN1CC(=O)Nc1cc(Cl)cc(NC2CCC(=O)NC2=O)c1 (stereo partly drawn) [Example 140, N-(3-chloro-5-(2,6-dioxopiperidin-3-ylamino)phenyl)-2-((R)-4-(2-(4-(3-(6-cyano-5-(trifluoromethyl)pyridin-3-yl)-5,5-dimethyl-4-oxo-2-thioxoimidazolidin-1-yl)-2-(2-fluoroethyl)phenoxy)ethyl)-2-methylpiperazin-1-yl)acetamide]
Y (AR degradation efficiency, % of DMSO control): * (0<Y<=25%)
DC50: < 100 nM

CCc1cc(N2C(=S)N(c3ccc(C#N)c(C(F)(F)F)c3)C(=O)C2(C)C)c(C)cc1OCCN1C[C@@H](C)N(CC(=O)Nc2cccc(NC3CCC(=O)NC3=O)c2)[C@@H](C)C1 (stereo partly drawn) [Example 254, 2-((2S,6R)-4-(2-(4-(3-(4-cyano-3-(trifluoromethyl)phenyl)-5,5-dimethyl-4-oxo-2-thioxoimidazolidin-1-yl)-2-ethyl-5-methylphenoxy)ethyl)-2,6-dimethylpiperazin-1-yl)-N-(3-(2,6-dioxopiperidin-3-ylamino)phenyl)acetamide]
Y (AR degradation efficiency, % of DMSO control): * (0<Y<=25%)
DC50: < 100 nM

C[C@@H]1CN(CCOc2ccc(N3C(=S)N(c4ccc(C#N)c(C(F)(F)F)c4)C(=O)C3(C)C)cc2C(C)(F)F)C[C@H](C)N1CC(=O)Nc1cccc(NC2CCC(=O)NC2=O)c1 (stereo partly drawn) [Example 252, 2-((2S,6R)-4-(2-(4-(3-(4-cyano-3-(trifluoromethyl)phenyl)-5,5-dimethyl-4-oxo-2-thioxoimidazolidin-1-yl)-2-(1,1-difluoroethyl)phenoxy)ethyl)-2,6-dimethylpiperazin-1-yl)-N-(3-(2,6-dioxopiperidin-3-ylamino)phenyl)acetamide]
Y (AR degradation efficiency, % of DMSO control): * (0<Y<=25%)
DC50: < 100 nM

CCc1cc(N2C(=S)N(c3ccc(C#N)c(C(F)(F)F)c3)C(=O)C2(C)C)ccc1OCCN1C[C@@H](C)N(CC(=O)Nc2cccc(NC3CCC(=O)NC3=O)c2)[C@@H](C)C1 (stereo partly drawn) [Example 150, 2-((2S,6R)-4-(2-(4-(3-(4-cyano-3-(trifluoromethyl)phenyl)-5,5-dimethyl-4-oxo-2-thioxoimidazolidin-1-yl)-2-ethylphenoxy)ethyl)-2,6-dimethylpiperazin-1-yl)-N-(3-(2,6-dioxopiperidin-3-ylamino)phenyl)acetamide]
Y (AR degradation efficiency, % of DMSO control): * (0<Y<=25%)
DC50: < 100 nM

CCc1cc(N2C(=S)N(c3cnc(C#N)c(C(F)(F)F)c3)C(=O)C2(C)C)ccc1OCCN1CCN(CC(=O)Nc2cc(C#N)cc(NC3CCC(=O)NC3=O)c2)[C@H](C)C1 (stereo partly drawn) [Example 155, N-(3-cyano-5-(2,6-dioxopiperidin-3-ylamino)phenyl)-2-((R)-4-(2-(4-(3-(6-cyano-5-(trifluoromethyl)pyridin-3-yl)-5,5-dimethyl-4-oxo-2-thioxoimidazolidin-1-yl)-2-ethylphenoxy)ethyl)-2-methylpiperazin-1-yl)acetamide]
Y (AR degradation efficiency, % of DMSO control): * (0<Y<=25%)
DC50: < 100 nM

CC[C@@H]1CN(CCOc2ccc(N3C(=S)N(c4ccc(C#N)c(C(F)(F)F)c4)C(=O)C3(C)C)cc2C2CC2)CCN1CC(=O)Nc1cccc(NC2CCC(=O)NC2=O)c1 (stereo partly drawn) [Example 261, 2-((R)-4-(2-(4-(3-(4-cyano-3-(trifluoromethyl)phenyl)-5,5-dimethyl-4-oxo-2-thioxoimidazolidin-1-yl)-2-cyclopropylphenoxy)ethyl)-2-ethylpiperazin-1-yl)-N-(3-(2,6-dioxopiperidin-3-ylamino)phenyl)acetamide]
Y (AR degradation efficiency, % of DMSO control): ** (25%<Y<=35%)
DC50: 100 to 500 nM

CCc1cc(N2C(=S)N(c3ccc(C#N)c(C(F)(F)F)c3)C(=O)C2(C)C)cc(C)c1OCCN1C[C@@H](C)N(CC(=O)Nc2cccc(NC3CCC(=O)NC3=O)c2)[C@@H](C)C1 (stereo partly drawn) [Example 249, 2-((2R,6S)-4-(2-(4-(3-(4-cyano-3-(trifluoromethyl)phenyl)-5,5-dimethyl-4-oxo-2-thioxoimidazolidin-1-yl)-2-ethyl-6-methylphenoxy)ethyl)-2,6-dimethylpiperazin-1-yl)-N-(3-(2,6-dioxopiperidin-3-ylamino)phenyl)acetamide]
Y (AR degradation efficiency, % of DMSO control): *** (35%<Y<50%)
DC50: 100 to 500 nM

CCc1cc(N2C(=S)N(c3ccc(C#N)c(C(F)(F)F)c3)C(=O)C2(C)C)ccc1OCCN1CCN(CC(=O)Nc2cccc(NC3CCC(=O)NC3=O)c2)C[C@@H]1CO (stereo partly drawn) [Example 48]
Y (AR degradation efficiency, % of DMSO control): * (0<Y<=25%)
DC50: < 100 nM

CC(C)c1cc(N2C(=S)N(c3ccc(C#N)c(C(F)(F)F)c3)C(=O)C2(C)C)ccc1OCCN1C[C@@H](C)N(CC(=O)Nc2cc(Cl)cc(NC3CCC(=O)NC3=O)c2)C[C@H]1C (stereo partly drawn) [Example 175, N-(3-chloro-5-(2,6-dioxopiperidin-3-ylamino)phenyl)-2-((2R,5R)-4-(2-(4-(3-(4-cyano-3-(trifluoromethyl)phenyl)-5,5-dimethyl-4-oxo-2-thioxoimidazolidin-1-yl)-2-isopropylphenoxy)ethyl)-2,5-dimethylpiperazin-1-yl)acetamide]
Y (AR degradation efficiency, % of DMSO control): * (0<Y<=25%)
DC50: 100 to 500 nM

CC1(C)C(=O)N(c2ccc(C#N)c(C(F)(F)F)c2)C(=S)N1c1ccc(OCCN2CCN(CC(=O)Nc3cccc(NC4CCC(=O)NC4=O)c3)[C@H](C(F)(F)F)C2)c(C2CC2)c1 (stereo partly drawn) [Example 245, 2-((S)-4-(2-(4-(3-(4-cyano-3-(trifluoromethyl)phenyl)-5,5-dimethyl-4-oxo-2-thioxoimidazolidin-1-yl)-2-cyclopropylphenoxy)ethyl)-2-(trifluoromethyl)piperazin-1-yl)-N-(3-(2,6-dioxopiperidin-3-ylamino)phenyl)acetamide]
Y (AR degradation efficiency, % of DMSO control): * (0<Y<=25%)
DC50: < 100 nM

CCc1cc(N2C(=S)N(c3ccc(C#N)c(C(F)(F)F)c3)C(=O)C2(C)C)ccc1OCCN1C[C@@H](C)N(CC(=O)Nc2cc(Cl)cc(NC3CCC(=O)NC3=O)c2)C[C@@H]1C (stereo partly drawn) [Example 123, N-(3-chloro-5-(2,6-dioxopiperidin-3-ylamino)phenyl)-2-((2R,5S)-4-(2-(4-(3-(4-cyano-3-(trifluoromethyl)phenyl)-5,5-dimethyl-4-oxo-2-thioxoimidazolidin-1-yl)-2-ethylphenoxy)ethyl)-2,5-dimethylpiperazin-1-yl)acetamide]
Y (AR degradation efficiency, % of DMSO control): * (0<Y<=25%)
DC50: < 100 nM

— US12404241B2 (Celgene Corporation, priority 2018, dated 2025)
